Our source for the T/C values is PubChem BioAssay AID328 (DTP/NCI, 2004).

The assay relates to BDF1 mice, P388 leukemia ip, median survival T/C. Description: NCI In Vivo Anticancer Drug Screen. Data for tumor model P388 Leukemia (intraperitoneal) in B6D2F1 (BDF1) mice. The following applies: endpoint: median survival time, higher = longer survival. In short, it runs like this:
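In tumour-bearing mice, survival after compound treatment is set against the vehicle group and given as a quotient.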

The mark [1] stands for this setting: dose: 25.0 mg/kg/injection, schedule: Q01DX009 (ip), vehicle: saline.
Where [2] appears, read: dose: 50.0 mg/kg/injection, schedule: Q01DX009 (ip), vehicle: saline.
Where [3] appears, read: dose: 100.0 mg/kg/injection, schedule: Q01DX009 (ip), vehicle: saline.
The mark [4] stands for this setting: dose: 100.0 mg/kg/injection, schedule: Q04DX003 (ip), vehicle: saline with Tween-80.
Where [5] appears, read: dose: 200.0 mg/kg/injection, schedule: Q04DX003 (ip), vehicle: saline with Tween-80.
Setting [6] is: dose: 400.0 mg/kg/injection, schedule: Q04DX003 (ip), vehicle: saline with Tween-80.
The mark [7] stands for this setting: dose: 50.0 mg/kg/injection, schedule: Q01DX009 (ip), vehicle: saline with Tween-80.
[8] abbreviates: dose: 100.0 mg/kg/injection, schedule: Q01DX009 (ip), vehicle: saline with Tween-80.
Where [9] appears, read: dose: 200.0 mg/kg/injection, schedule: Q01DX009 (ip), vehicle: saline with Tween-80.
The mark [10] stands for this setting: dose: 400.0 mg/kg/injection, schedule: Q01DX009 (ip), vehicle: saline with Tween-80.
The mark [11] stands for this setting: dose: 100.0 mg/kg/injection, schedule: Q01DX001 (ip), vehicle: saline with Tween-80.
[12] abbreviates: dose: 200.0 mg/kg/injection, schedule: Q01DX001 (ip), vehicle: saline with Tween-80.
[13] abbreviates: dose: 400.0 mg/kg/injection, schedule: Q01DX001 (ip), vehicle: saline with Tween-80.

Molecules are shown by their SMILES. Inconclusive results and toxic doses are left out.

Turning to `Cn1cncc1CC(Cl)CO` (stereo unspecified), the T/C is, setting by setting: under setting [1], 100 % of control; under setting [2], 99 % of control; under setting [3], 103 % of control.

In the case of `O=C(O)CCC1(c2ccccc2)CCCC1`, the T/C (dose: 25.0 mg/kg/injection, schedule: Q01DX009 (ip), vehicle: water) was 91 % of control; the T/C (dose: 50.0 mg/kg/injection, schedule: Q01DX009 (ip), vehicle: water) was 88 % of control; the T/C (dose: 100.0 mg/kg/injection, schedule: Q01DX009 (ip), vehicle: water) is 103 % of control; the T/C (dose: 200.0 mg/kg/injection, schedule: Q01DX009 (ip), vehicle: water) was 97 % of control; the T/C (dose: 300.0 mg/kg/injection, schedule: Q01DX009 (ip), vehicle: water) is 106 % of control.

As to `Cc1ccc2c(c1)CCCN2C`, the T/C reads like this: under setting [1], 114 % of control; under setting [2], 114 % of control; (dose: 50.0 mg/kg/injection, schedule: Q04DX003 (ip), vehicle: saline) 104 % of control; (dose: 100.0 mg/kg/injection, schedule: Q04DX003 (ip), vehicle: saline) 104 % of control.

Consider `O=c1[nH]c(=O)n(C2CC(O)C(CO)O2)cc1C(F)(F)F` (stereo unspecified), for which the T/C is, setting by setting: (dose: 62.5 mg/kg/injection, schedule: Q01DX009 (ip), vehicle: Klucel (hydroxypropylcellulose) (HPC)) 104 % of control; (dose: 125.0 mg/kg/injection, schedule: Q01DX009 (ip), vehicle: Klucel (hydroxypropylcellulose) (HPC)) 118 % of control; (dose: 250.0 mg/kg/injection, schedule: Q01DX009 (ip), vehicle: Klucel (hydroxypropylcellulose) (HPC)) 122 % of control; (dose: 500.0 mg/kg/injection, schedule: Q01DX009 (ip), vehicle: Klucel (hydroxypropylcellulose) (HPC)) 90 % of control.

Consider `C=C(C)C(N)C(=O)O` (stereo unspecified), for which the T/C was 118 % of control under setting [4], 104 % of control under setting [5] and 118 % of control under setting [6].

On to `CCS(=O)(=O)CC`, for which the T/C (dose: 100.0 mg/kg/injection, schedule: Q04DX003 (ip), vehicle: saline sonified) was 95 % of control; the T/C (dose: 200.0 mg/kg/injection, schedule: Q04DX003 (ip), vehicle: saline sonified) is 100 % of control; the T/C (dose: 400.0 mg/kg/injection, schedule: Q04DX003 (ip), vehicle: saline sonified) is 100 % of control.

Consider `COc1ccccc1OC(=O)Nc1ccccc1F`, for which the T/C by setting is: under setting [4], 90 % of control; under setting [5], 90 % of control; under setting [6], 100 % of control.

With `COC1CC(O)C(O)C(C)O1` (stereo unspecified), the T/C under setting [7] was 97 % of control; the T/C under setting [2] was 100 % of control; the T/C under setting [8] is 95 % of control; the T/C under setting [3] is 107 % of control; the T/C under setting [4] was 106 % of control; the T/C under setting [9] was 100 % of control. Further, the T/C by setting is: (dose: 200.0 mg/kg/injection, schedule: Q01DX009 (ip), vehicle: saline) 118 % of control; under setting [5], 101 % of control; under setting [10], 95 % of control; (dose: 400.0 mg/kg/injection, schedule: Q01DX009 (ip), vehicle: saline) 99 % of control; under setting [6], 99 % of control.

Take `COc1cccc(C(=O)CC(O)(C(F)(F)F)C(F)(F)F)c1`: the T/C reads like this: (dose: 100.0 mg/kg/injection, schedule: Q01DX009 (ip), vehicle: other) 91 % of control; (dose: 100.0 mg/kg/injection, schedule: Q04DX003 (ip), vehicle: other) 100 % of control; (dose: 200.0 mg/kg/injection, schedule: Q01DX009 (ip), vehicle: other) 95 % of control; (dose: 200.0 mg/kg/injection, schedule: Q04DX003 (ip), vehicle: other) 100 % of control; (dose: 400.0 mg/kg/injection, schedule: Q01DX009 (ip), vehicle: other) 104 % of control; (dose: 400.0 mg/kg/injection, schedule: Q04DX003 (ip), vehicle: other) 100 % of control.

In the case of `Nc1c(C(=O)O)[nH]c(=O)[nH]c1=O`, the T/C is, setting by setting: under setting [7], 113 % of control; under setting [8], 219 % of control.

Consider `CCOC(=O)CC(C)(N)NC(N)=O` (stereo unspecified), for which the T/C was 110 % of control under setting [11]; 115 % of control under setting [8]; 110 % of control (dose: 100.0 mg/kg/injection, schedule: Q04DX003 (ip), vehicle: alcohol); 95 % of control under setting [12]; 105 % of control under setting [9]; 105 % of control (dose: 200.0 mg/kg/injection, schedule: Q04DX003 (ip), vehicle: alcohol). Further, the T/C reads like this: under setting [13], 110 % of control; under setting [10], 105 % of control; (dose: 400.0 mg/kg/injection, schedule: Q04DX003 (ip), vehicle: alcohol) 110 % of control.

With `NC(=S)NCc1ccccc1C(O)c1ccccc1` (stereo unspecified), the T/C is, setting by setting: under setting [7], 94 % of control; under setting [8], 91 % of control; under setting [9], 101 % of control.

Regarding `COc1ccc(-c2cc(-c3ccc(Cl)cc3)no2)cc1`, the T/C reads like this: (dose: 100.0 mg/kg/injection, schedule: Q01DX009 (ip), vehicle: Klucel (hydroxypropylcellulose) (HPC)) 90 % of control; (dose: 100.0 mg/kg/injection, schedule: Q04DX003 (ip), vehicle: Klucel (hydroxypropylcellulose) (HPC)) 100 % of control; (dose: 200.0 mg/kg/injection, schedule: Q01DX009 (ip), vehicle: Klucel (hydroxypropylcellulose) (HPC)) 90 % of control; (dose: 200.0 mg/kg/injection, schedule: Q04DX003 (ip), vehicle: Klucel (hydroxypropylcellulose) (HPC)) 100 % of control; (dose: 400.0 mg/kg/injection, schedule: Q01DX009 (ip), vehicle: Klucel (hydroxypropylcellulose) (HPC)) 100 % of control; (dose: 400.0 mg/kg/injection, schedule: Q04DX003 (ip), vehicle: Klucel (hydroxypropylcellulose) (HPC)) 100 % of control.

In the case of `CC1CNC(=S)O1` (stereo unspecified), the T/C by setting is: (dose: 50.0 mg/kg/injection, schedule: Q04DX003 (ip), vehicle: saline with Tween-80) 90 % of control; under setting [4], 120 % of control; under setting [5], 90 % of control; under setting [6], 115 % of control.

As to `NC(Cc1ccc(O)cc1)C(=O)O` (stereo unspecified), the T/C was 100 % of control under setting [8]; 100 % of control under setting [4]; 92 % of control under setting [9]; 91 % of control under setting [5]; 95 % of control under setting [6].

Take `COc1cc2c(c(OC)c1OC)C(=O)/C(=C\c1ccccc1)O2`: under setting [9], the T/C was 96 % of control.

Turning to `N#CC(/C=C/c1ccccc1)Nc1ccccc1C(N)=O` (stereo unspecified), the T/C is, setting by setting: (dose: 25.0 mg/kg/injection, schedule: Q01DX001 (ip), vehicle: saline with Tween-80) 109 % of control; (dose: 50.0 mg/kg/injection, schedule: Q01DX001 (ip), vehicle: saline with Tween-80) 104 % of control; under setting [11], 100 % of control.

In the case of `CCOC(=O)c1cc[nH]c1CC(=O)NCc1ccccc1`, the T/C is 97 % of control under setting [11], 118 % of control under setting [12] and 103 % of control under setting [13].

Regarding `O=[N+]([O-])c1ccc(N2CCCCCC2)c2c1no[n+]2[O-]`, the T/C by setting is: (dose: 15.0 mg/kg/injection, schedule: Q01DX009 (ip), vehicle: saline with Tween-80) 90 % of control; (dose: 30.0 mg/kg/injection, schedule: Q01DX009 (ip), vehicle: saline with Tween-80) 95 % of control; (dose: 60.0 mg/kg/injection, schedule: Q01DX009 (ip), vehicle: saline with Tween-80) 95 % of control.

Take `O=C1c2ccccc2C(=O)c2c(O)ccc(O)c21`: the T/C under setting [8] is 104 % of control, the T/C under setting [9] is 109 % of control and the T/C under setting [10] is 109 % of control.

As to `O=C1c2ccccc2S(=O)(=O)N1CC(O)COc1ccc(Cl)cc1` (stereo unspecified), the T/C is 104 % of control under setting [4], 100 % of control under setting [5] and 95 % of control under setting [6].

For `CCCCCCCCC(=O)Nc1ncnc2n[nH]nc12`, the T/C is, setting by setting: (dose: 6.25 mg/kg/injection, schedule: Q01DX009 (ip), vehicle: saline with Tween-80) 87 % of control; (dose: 12.5 mg/kg/injection, schedule: Q01DX009 (ip), vehicle: saline with Tween-80) 90 % of control; (dose: 25.0 mg/kg/injection, schedule: Q01DX009 (ip), vehicle: saline with Tween-80) 102 % of control; under setting [7], 109 % of control.
